Results as given in US5441894A, “Device containing a light absorbing element for automated chemiluminescent immunoassays” (Abbott Laboratories, priority 1993, dated 1995).

Tested on: Anti-phencyclidine antibodies
Experiment: Ion-Capture Competitive Binding Assay For Phencyclidine (PCP) in Urine

c1ccc(C2(N3CCCCC3)CCCCC2)cc1 [PCP, phencyclidine]
% Bound (25 ng/mL PCP in urine, Side A): 83.00% | % Bound (25 ng/mL PCP in urine, Side B): 85.50% | % Bound (60 ng/mL PCP in urine, Side A): 94.60% | % Bound (60 ng/mL PCP in urine, Side B): 94.19% | % Bound (120 ng/mL PCP in urine, Side A): 97.44% | % Bound (120 ng/mL PCP in urine, Side B): 97.54% | % Bound (250 ng/mL PCP in urine, Side A): 99.28% | % Bound (250 ng/mL PCP in urine, Side B): 99.32% | % Bound (500 ng/mL PCP in urine, Side A): 100.00% | % Bound (500 ng/mL PCP in urine, Side B): 100.00%
